Data reported in US9061041B2, “2′-substituted nucleoside derivatives and methods of use thereof for the treatment of viral diseases” (Merck Sharp & Dohme Corp., priority 2011, dated 2015).
Read-outs that look alike come from different tables or passages of the source.

Tests used:
[1] = test system: HCV replicon (1b) cells; experiment: Cell-based HCV replicon assay
Description: To measure cell-based anti-HCV activity of selected compounds of the present invention, replicon cells were seeded at 5000 cells/well in 96-well collagen I-coated Nunc plates in the presence of the test compound. […]. Cells were harvested on day 3 by the addition of 1× cell lysis buffer (Ambion cat #8721). The replicon RNA level was measured using real time PCR (Taqman assay). The amplicon was located in 5B. The PCR primers were: 5B.2F, […] (SEQ ID. NO. 1); 5B.2R, […] (SEQ ID. NO. 2); the probe sequence was FAM-labeled […] (SEQ ID. NO. 3). GAPDH RNA was used as endogenous control and was amplified in the same reaction as NS5B (multiplex PCR) using primers and VIC-labeled probe recommended by the manufacturer (PE Applied Biosystem). The real-time RT-PCR reactions were run on ABI PRISM 7900HT Sequence Detection System using the following program: 48° C. for 30 minutes, 95° C. for 10 minutes, 40 cycles of 95° C. for 15 sec, 60° C. for 1 minute. The ΔCT values (CT5B-CTGAPDH) were plotted against the concentration of test compound and fitted to the sigmoid dose-response model using XLfit4 (MDL). […]; Alternatively, to quantitate the absolute amount of replicon RNA, a standard curve was established by including serially diluted T7 transcripts of replicon RNA in the Taqman assay. All Taqman reagents were from PE Applied Biosystems. Such an assay procedure was described in detail in e.g. Malcolm et al., Antimicrobial Agents and Chemotherapy 50: 1013-1020 (2006).

[2] = test system: replicon cells (1b-Con1); experiment: Replicon activity assay (1b-Con1); assay type: cell-based, HCV; details: Hepatitis C virus, 72 h, three days post-dosing
[3] = test system: replicon cells (1b-Con1); experiment: Cytotoxicity MTS assay in replicon cells; details: CC50, MTS assay, three days post dosing
[4] = replicon RNA level by real time PCR, cells harvested on day 3
[5] = Hepatitis C virus, 72 h, replicon RNA level by real time PCR, cells harvested on day 3

| SMILES | EC50 [1, 4] | EC50 [1, 5] | other results |
| --- | --- | --- | --- |
| COc1nc(N)nc2c1ncn2[C@@H]1O[C@H](COP(=O)(N[C@@H](C)C(=O)OCC(C)(C)C)Oc2ccccc2)C(O)[C@@]1(C)N (single isomer, unassigned) [Compound 53] | 2.7 µM | – | – |
| C[C@H](NP(=O)(OC[C@H]1O[C@@H](n2ccc(=O)[nH]c2=O)[C@](C)(N)C1O)Oc1ccccc1)C(=O)OCC(C)(C)C (single isomer, unassigned) [Compound 57] | 9.9 µM | – | – |
| C[C@H](NP(=O)(OC[C@H]1O[C@@H](n2ccc(N)nc2=O)[C@](C)(N)C1O)Oc1ccccc1)C(=O)OCC(C)(C)C (stereo partly drawn) | – | – | EC50 [2]: 4.4 µM; Cytotoxicity [3]: >100 µM |
| CCOC(=O)[C@H](C)NP(=O)(OC[C@H]1O[C@@H](n2cnc3c(OC)nc(N)nc32)[C@](C)(N)C1O)Oc1ccccc1 (single isomer, unassigned) [Compound 28] | – | 0.1 µM | – |
| CC(C)COC(=O)[C@H](C)NP(=O)(OC[C@H]1O[C@@H](n2ccc(N)nc2=O)[C@](C)(N)[C@@H]1O)Oc1ccccc1 (stereo partly drawn) | – | – | EC50 [2]: 6.6 µM; Cytotoxicity [3]: 50 µM |
| CCOc1nc(N)nc2c1ncn2[C@@H]1O[C@H](COP(=O)(N[C@@H](C)C(=O)OC)Oc2ccccc2)[C@@H](O)[C@@]1(C)SC (stereo partly drawn) [Compound 43] | – | 38 µM | – |
| CCOC(=O)[C@H](C)NP(=O)(OC[C@H]1O[C@@H](n2cnc3c(OC)nc(N)nc32)[C@](C)(N)C1O)Oc1ccccc1 (single isomer, unassigned) [Compound 29] | 0.1 µM | – | – |
| CCOc1nc(N)nc2c1ncn2[C@@H]1O[C@H](COP(=O)(N[C@@H](C)C(=O)OC)Oc2ccccc2)C(O)[C@@]1(C)NC(N)=O (stereo partly drawn) [Compound 12] | – | > 100 µM | – |
| C[C@@]1(N)[C@@H]2OP(=O)(OC3CCC3)OC[C@H]2O[C@H]1n1ccc(N)nc1=O (stereo partly drawn) [Compound 79] | – | 2.8 µM | – |
| CCOc1nc(N)nc2c1ncn2[C@@H]1O[C@H](COP(=O)(N[C@@H](C)C(=O)OC)Oc2ccccc2)[C@@H](O)[C@@]1(C)SC (stereo partly drawn) [drawing 242] | – | – | EC50 [2]: 38 µM; Cytotoxicity [3]: >100 µM |
| C[C@@]1(N)[C@H](O)[C@@H](CO)O[C@H]1n1ccc(N)nc1=O [Compound 1] | 100 µM | – | – |
| COc1nc(N)nc2c1ncn2[C@@H]1O[C@H](COP(=O)(N[C@@H](C)C(=O)OCC(C)(C)C)Oc2ccccc2)C(O)[C@@]1(C)N (single isomer, unassigned) [Compound 52] | 0.9 µM | – | – |
| C[C@H](NP(=O)(OC[C@H]1O[C@@H](n2ccc(N)nc2=O)[C@](C)(N)C1O)Oc1ccccc1)C(=O)OCC(C)(C)C (single isomer, unassigned) [Compound 58] | 4.4 µM | – | – |
| CCOc1nc(N)nc2c1ncn2[C@@H]1O[C@H](COP(=O)(N[C@@H](C)C(=O)OCC(C)(C)C)Oc2ccccc2)C(O)[C@@]1(C)N (single isomer, unassigned) [Compound 55] | 3.1 µM | – | – |
| C[C@@]1(S(C)(=O)=O)[C@H](O)[C@@H](CO)O[C@H]1n1ccc(N)nc1=O [Compound 3] | – | – | EC50 [1]: > 100 µM |
| C[C@H](NP(=O)(OC[C@H]1O[C@@H](n2ccc(=O)[nH]c2=O)[C@](C)(N)C1O)Oc1ccccc1)C(=O)OCC(C)(C)C (single isomer, unassigned) [Compound 56] | 0.7 µM | – | – |
| CCOc1nc(N)nc2c1ncn2[C@@H]1O[C@H](COP(=O)(N[C@@H](C)C(=O)OC)Oc2ccccc2)C(O)[C@@]1(C)N (single isomer, unassigned) [Compound 21] | – | 2.6 µM | – |
| C[C@@]1(N)[C@H](O)[C@@H](CO)O[C@H]1n1ccc(=O)[nH]c1=O [Compound 16] | – | > 100 µM | – |
| COC(=O)[C@H](C)NP(=O)(OC[C@H]1O[C@@H](n2ccc(N)nc2=O)[C@](C)(n2ccnn2)[C@@H]1O)Oc1ccccc1 (stereo partly drawn) [Compound 5] | 90 µM | – | – |
| CC(C)COC(=O)[C@H](C)NP(=O)(OC[C@H]1O[C@@H](n2ccc(=O)[nH]c2=O)[C@](C)(N)[C@@H]1O)Oc1ccccc1 (single isomer, unassigned) [Compound 67] | – | 6.8 µM | – |
| COC(=O)[C@H](C)NP(=O)(OC[C@H]1O[C@@H](n2ccc(N)nc2=O)[C@](C)(Cl)[C@@H]1O)Oc1ccccc1 (stereo partly drawn) [Compound 8] | – | 34 µM | – |
| COc1nc(N)nc2c1ncn2[C@@H]1O[C@H](CO)[C@@H](O)[C@@]1(C)N [Compound 15] | – | > 100 µM | – |
| C[C@@]1(n2ccnn2)[C@H](O)[C@@H](CO)O[C@H]1n1ccc(N)nc1=O [Compound 4] | – | – | EC50 [1]: > 100 µM |
| CC(C)OP1(=O)OC[C@H]2O[C@@H](n3ccc(N)nc3=O)[C@](C)(N)[C@@H]2O1 (stereo partly drawn) [Compound 78] | – | 30 µM | – |
